Patent US20140086938A1, “METHODS OF INHIBITING TUMOR GROWTH USING TTK ANTAGONISTS” (University Health Network, priority 2007, published 2014)

What was measured:
Assay in all cases: SP600125 SRB growth inhibition
Format in all cases: cell-based
MCF-7 = settings: Homo sapiens, MCF7, 120 h, SRB assay 5 days after addition
Procedure: (§1) Compound SP600125 was purchased from Biomol International (PA, USA). 10 mM stock was prepared in 100% DMSO. Cells were seeded at various numbers, ranging from 1500 to 4000 per 80 μl in each well according to cell growth rate, into 96 well plates, 24 hours before compound overlay. The 10 mM SP600125 compounds stock in 100% DMSO was diluted with Opti-MEM I Reduced-Serum Medium (Invitrogen, Burlington, ON, Canada) to concentrations range from 50 nM to 250 μM. 20 μl from each concentration was overlay to cells to make the final concentrations range from 10 nM to 50 μM. The cells were cultured for 5 days before Sulforhodamine B assay. SRB assay is performed to assess cell survival. SRB is a water-soluble dye that binds to the basic amino acids of the cellular proteins. Thus, colorimetric measurement of the bound dye provides an estimate of the total protein mass that is related to the cell number. the cells are fixed in situ by gently aspirating off the culture media and adding 50 μl ice cold 10% Tri-chloroacetic Acid (TCA) per well and incubate at 4° C. for 30-60 min. The plates are washed with tap water five times and allowed to air dry for 5 min. Add 50 μl 0.4% (w/v) Sulforhodamine B solution in 1% (v/v) acetic acid per well and incubate for 30 min at RT for staining. Following staining, plates are washed four times with 1% acetic acid to remove any unbound dye and then allowed to air dry for 5 min. Stain is solubilized with 100 ul of 10 mM Tris pH 10.5 per well. Absorbance is read at 570 nm. The cell survival percentage in each compound concentration was calculated over the cell DMSO control, which was growing in the presence of 0.1% DMSO (0.5% in the case of 50 μM compounds). The GI50 were calculated using GraphPad PRISM software.
(§2) Cell viability was assessed using the SRB assay described herein, which was performed 5 days after the addition of SP600125 to the culture media. Prism software was used to calculate GI50 (concentration of the compound required to achieve 50% growth inhibition) (Table 3).

MDA-MB-435 = settings: Homo sapiens, 120 h, SRB assay 5 days after addition
Procedure: as §1, §2

HCC1419 = settings: Homo sapiens, 120 h, SRB assay 5 days after addition
Procedure: as §1, §2

Hs578T = settings: Homo sapiens, Hs-578T, 120 h, SRB assay 5 days after addition
Procedure: as §1, §2

SKBr-3 = settings: Homo sapiens, SK-BR-3, 120 h, SRB assay 5 days after addition
Procedure: as §1, §2

BT474 = settings: Homo sapiens, BT-474, 120 h, SRB assay 5 days after addition
Procedure: as §1, §2

MDA-MB-453 = settings: Homo sapiens, 120 h, SRB assay 5 days after addition
Procedure: as §1, §2

MDA-MB-330 = settings: Homo sapiens, 120 h, SRB assay 5 days after addition
Procedure: as §1, §2

MDA-MB-468 = settings: Homo sapiens, 120 h, SRB assay 5 days after addition
Procedure: as §1, §2

T47D = settings: Homo sapiens, 120 h, SRB assay 5 days after addition
Procedure: as §1, §2

184A = settings: Homo sapiens, 120 h, SRB assay 5 days after addition
Procedure: as §1, §2

MDA-MB-231 = settings: Homo sapiens, 120 h, SRB assay 5 days after addition
Procedure: as §1, §2

Compound: Oc1c2ccccc2c2c3c(cccc13)N=N2 [SP600125, anthra(1,9-cd)pyrazol-6(2H)-one 1,9-pyrazoloanthrone]
- GI50 (MCF-7): 672 nM
- GI50 (MDA-MB-435): 822 nM
- GI50 (HCC1419): 10000 nM
- GI50 (Hs578T): 1840 nM
- GI50 (SKBr-3): 812 nM
- GI50 (BT474): 8580 nM
- GI50 (MDA-MB-453): 2300 nM
- GI50 (MDA-MB-330): 7020 nM
- GI50 (MDA-MB-468): 483 nM
- GI50 (T47D): 2520 nM
- GI50 (184A): 1590 nM
- GI50 (MDA-MB-231): 894 nM
